Our source for the Ki, inhibition in vivo and inhibition values is patent publication US8236963B2, “Tricyclic spiro derivatives as CRTH2 modulators” (Merck Serono SA, priority 2005, dated 2012).

The target in assay [1] is T1, CRTH2 (Homo sapiens, UniProt Q9Y5Y4).
T1 sequence (Q9Y5Y4 1-395): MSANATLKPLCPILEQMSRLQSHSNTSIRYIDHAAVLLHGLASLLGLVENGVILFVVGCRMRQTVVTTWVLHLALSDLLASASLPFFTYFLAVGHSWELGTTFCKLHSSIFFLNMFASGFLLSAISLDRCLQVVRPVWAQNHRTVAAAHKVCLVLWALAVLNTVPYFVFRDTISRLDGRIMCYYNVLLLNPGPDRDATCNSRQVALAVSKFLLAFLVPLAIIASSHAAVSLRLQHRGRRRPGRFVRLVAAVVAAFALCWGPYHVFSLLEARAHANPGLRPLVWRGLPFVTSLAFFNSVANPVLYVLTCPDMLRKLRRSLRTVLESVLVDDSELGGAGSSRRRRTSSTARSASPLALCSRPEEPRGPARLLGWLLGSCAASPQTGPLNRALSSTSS
Nature of the assay: Determination of Ki (radioligand binding assay, equilibrium competition against [3H]PGD2). Set-up: expressed in transfected cells; host or cells: HEK293 (EBNA) cells, membrane preparation. The note with it: average of at least three independent dose response experiments. On the procedure: The inhibitory activity can be investigated by a radioligand binding assay (Sawyer et al., Br. J. Pharmocol 2002, 137, 1163-72). The radioligand binding assay was performed at room temperature in binding buffer (10 mM HEPES/KOH pH […], with protease inhibitor cocktail tablets), containing 1.5 nM [^3H]PGD2 (Amersham, 156 Cie/mmol), and 10 μg of hCRTH2 HEK293 (EBNA) cell membrane protein in a final volume of 100 μl in 96 well plates (Corning, USA). Non-specific binding was determined in the presence of 1 μM PGD2 (Cayman, USA). Competing spiro-indolinones were diluted in dimethylsulphoxide so that the total volume of dimethylsulfoxide was kept constant at 1% dimethylsulphoxide (Me2SO) Serial dilutions of 100 μM and […] were prepared. 10 μl each of these spiro-indolinone stock solutions were added. Incubation (60 min at room temperature) was terminated by rapid filtration through 96 wells hydrophobic GF/C Unifilter plates (Whatman, USA). Filters were washed twice with 250 μl of Tris-HCl pH 7.4, 10 mM MnCl2, and residual radioligand bound to the filters was mixed to 100 μl of liquid scintillation cocktail (Optiphase Supermix, Perkin Elmer, USA) and binding activity was determined by counting residual radioligand using a 1450 Micro-beta scintillation counter (Wallac, UK). The following representative compounds were tested. All inhibited the binding of PGD2 to CRTH2 by more than 70%. • (1′-benzyl-5-chloro-2,2′,5′-trioxospiro[indole-3,3′-pyrrolidin]-1(2H)-yl)acetic acid • (1′-benzyl-5-fluoro-2,2′,5′-trioxospiro[indole-3,3′-pyrrolidin]-1(2H)-yl)acetic acid • 4-(1′-allyl-5-chloro-2,2′,5′-trioxospiro[indole-3,3′-pyrrolidin]-1(2H)-yl)butanoic acid • [5-chloro-1′-(2-methoxyethyl)-2,2′,5′-trioxospiro[indole-3,3′-pyrrolidin]-1(2H)-yl]acetic acid • 4-(1′-benzyl-5-chloro-2,2′,5′-trioxospiro[indole-3,3′-pyrrolidin]-1(2H)-yl)butanoic acid • (1′-benzyl-5-methoxy-2,2′,5′-trioxospiro[indole-3,3′-pyrrolidin]-1(2H)-yl)acetic acid • [5-fluoro-1′-[(2-methoxyethoxy)methyl]-2,2′,5′-trioxospiro[indole-3,3′-pyrrolidin]-1(2H)-yl]acetic acid • 4-(1′-allyl-5-fluoro-2,2′,5′-trioxospiro[indole-3,3′-pyrrolidin]-1(2H)-yl)butanoic acid • 4-(1′-benzyl-5-fluoro-2,2′,5′-trioxospiro[indole-3,3′-pyrrolidin]-1(2H)-yl)butanoic acid
Ki values were determined by equilibrium competition binding experiments against [^3H]PGD2. Ki values were calculated from the formula below and represent the average of at least three independent dose response experiments. The Ki values give the ligand concentrations necessary to inhibit 50% of the binding of [^3H]PGD2 to CRTH2. Ki=IC50/(1+[Concentration of Ligand]/Kd)]
All experiments were performed in 96 well plates, in a final volume of 100 μl according to the above described filtration assay. The concentration of membranes and 3 [H]PGD2, as well as the positive and negative controls were identical to the conditions described above.

Assay [2] relates to DK-PGD2-induced vascular leakage. The assay can be described thus: Model of DK-PGD2-induced vascular leakage in mice. Format: in vivo, Balb/c mice. The note with it: Mus musculus, 1.5 h; dose of 30 mg/kg; 30 min before DK-PGD2 challenge; Evans blue extravasation. On the procedure: This test is described in Takeshita et al. (2004). Balb/c mice (Elevage Janvier) (8 week old) received an intradermal injection of DK-PGD2 (10 μg in 30 μl) on their shaved backs and an intravenous injection of Evans blue solution (25 mg/kg) 30 min after administration of the test molecules (spiro derivative). Ninety minutes after the challenge, the animals were sacrificed. The skin of the back was removed and blood was sampled. The extravasated dye (punch diameter: 5 mm) was extracted by 0.2 ml of formamide and was quantified by fluorescence (E1: 585 nm, E2: 660 nm). The Evans Blue extravasation ratio was expressed as the following: skin/serum×1000.

The target of assay [3] is T1, CRTH2. Nature of the assay: Radioligand binding assay ([3H]PGD2, hCRTH2 HEK293 (EBNA) cell membranes). Set-up: expressed in transfected cells; host or cells: HEK293 (EBNA) cells, membrane preparation. The note with it: 1.5 nM [3H]PGD2, 10 μg hCRTH2 HEK293 (EBNA) membrane protein, 60 min at room temperature. The text has this: Human CRTH2 cDNA was amplified by PCR using a human urinary bladder cDNA library as a template and specific primers containing HindIII and BamHI restriction sites for cloning into the pCEP4 vector (Invitrogen). The vector construction is described in detail in Sawyer et al., Br. J. Pharmocol 2002, 137, 1163-72. The nucleotide sequence of the cloned cDNA was identical the previously reported hCRTH2 sequence (Nagata et al, 1999, J. Immunol. 162, 1278-1286).
HEK293 (EBNA) cells were transfected with the pCEP4-hCRTH2 construct using the calcium phosphate technique. Cells were maintained in culture at 37° C. in an atmosphere of 5% CO2 in Dulbecco's modified Eagle's F12 medium (Invitrogen), containing 10% heat-inactivated foetal calf serum (TerraCell International, Canada), 2 mM Glutamine, 100 units/ml of penicillin and 100 μg/ml streptomycin (Invitrogen). 48 hours after the transfection, cells were grown in presence of 300 μg/ml of Hygromycin B (Invitrogen) for 4 weeks and antibiotic resistant cells were amplified for cell membrane preparation.
Adherent HEK293 (EBNA) cells expressing hCRTH2 were cultured in 225 cm^2 cell culture flasks (Corning, USA) in 30 ml of medium. After two rinses of phosphate buffered saline (PBS), cells were harvested in 10 ml of PBS containing 1 mM EDTA, centrifuged at 500×g for 5 min at 4° C. and frozen at −80° C. The pellet was re-suspended in 50 mM Tris-HCl, pH 7.4, 2 mM EDTA, 250 mM Sucrose, containing protease inhibitor cocktail tablets, (Complete EDTA-free, Roche, Germany) and incubated 30 min at 4° C. Cells were disrupted by nitrogen cavitation (Parr Instruments, USA) at 4° C. (800 p.s.i. for 30 min), and centrifuged at 500×g for 10 min at 4° C. Pellet containing nuclei and cellular debris was discarded and supernatant was centrifuged 60 min at 4° C. at 45000×g. Membrane pellet was re-suspended in storage buffer (10 mM HEPES/KOH pH 7.4, 1 mM EDTA, 250 mM sucrose, protease inhibitor cocktail tablets) using Dounce homogenization and frozen in liquid nitrogen, and stored at −80° C.
The inhibitory activity can be investigated by a radioligand binding assay (Sawyer et al., Br. J. Pharmocol 2002, 137, 1163-72). The radioligand binding assay was performed at room temperature in binding buffer (10 mM HEPES/KOH pH […], with protease inhibitor cocktail tablets), containing 1.5 nM [^3H]PGD2 (Amersham, 156 Cie/mmol), and 10 μg of hCRTH2 HEK293 (EBNA) cell membrane protein in a final volume of 100 μl in 96 well plates (Corning, USA). Non-specific binding was determined in the presence of 1 μM PGD2 (Cayman, USA). Competing spiro-indolinones were diluted in dimethylsulphoxide so that the total volume of dimethylsulfoxide was kept constant at 1% dimethylsulphoxide (Me2SO) Serial dilutions of 100 μM and […] were prepared. 10 μl each of these spiro-indolinone stock solutions were added. Incubation (60 min at room temperature) was terminated by rapid filtration through 96 wells hydrophobic GF/C Unifilter plates (Whatman, USA). Filters were washed twice with 250 μl of Tris-HCl pH 7.4, 10 mM MnCl2, and residual radioligand bound to the filters was mixed to 100 μl of liquid scintillation cocktail (Optiphase Supermix, Perkin Elmer, USA) and binding activity was determined by counting residual radioligand using a 1450 Micro-beta scintillation counter (Wallac, UK). The following representative compounds were tested. […]

Some results are limits rather than exact numbers.

Broadly, the Ki is a dissociation constant, usually derived from enzyme kinetics or from competition with a known ligand. Higher therefore signals weaker binding. The inhibition in vivo is how much of the control response was suppressed. A higher inhibition in vivo goes with strong suppression. As a reminder, the inhibition is how much of the control response was suppressed. High values mean a response far below the control, low ones a response near the control.

`O=C(O)CN1C(=O)[C@@]2(CC(=O)N(Cc3ccccc3F)C2=O)c2cc(Cl)ccc21` [Compound 109, (3R)-[5-chloro-1′-(2-fluorobenzyl)-2,2′,5′-trioxospiro[indole-3,3′-pyrrolidin]-1(2H)-yl]acetic acid] displayed a Ki at CRTH2 [1] of 28 nM. In assay [2], this compound came in with an inhibition in vivo at 30 mg/kg of 38%.
For the compound `Cc1noc(-c2ccccc2)c1CN1CC2(CC1=O)C(=O)N(CC(=O)O)c1ccc(Cl)cc12` (centres unmarked) [Compound 114, [5-chloro-1′-[(3-methyl-5-phenylisoxazol-4-yl)methyl]-2,5′-dioxospiro[indole-3,3′-pyrrolidin]-1(2H)-yl]acetic acid], at CRTH2 [1], the Ki turned out to be 3.4 nM. In assay [2], this compound came in with an inhibition in vivo at 30 mg/kg of 44%.
Take `COCCOCN1C(=O)CC2(C1=O)C(=O)N(CC(=O)O)c1ccc(F)cc12` (centres unmarked) [[5-fluoro-1′-[(2-methoxyethoxy)methyl]-2,2′,5′-trioxospiro[indole-3,3′-pyrrolidin]-1(2H)-yl]acetic acid]: the inhibition at CRTH2 [3] was greater than 70%.
`O=C(O)CN1C(=O)C2(CC(=O)N(Cc3ccccc3F)C2)c2cc(Cl)ccc21` (centres unmarked) [Compound 115, [5-chloro-1′-(2-fluorobenzyl)-2,5′-dioxospiro[indole-3,3′-pyrrolidin]-1(2H)-yl]acetic acid] displayed a Ki at CRTH2 [1] of 140 nM. Further, testing at 30 mg/kg in assay [2] gave an inhibition in vivo of 45%.
As to `C=CCN1C(=O)CC2(C1=O)C(=O)N(CCCC(=O)O)c1ccc(Cl)cc12` (centres unmarked) [4-(1′-allyl-5-chloro-2,2′,5′-trioxospiro[indole-3,3′-pyrrolidin]-1(2H)-yl)butanoic acid], the inhibition at CRTH2 [3] was greater than 70%.
On the same count and under the same terms, the result for `O=C(O)CN1C(=O)C2(CC(=O)N(Cc3ccccc3)C2=O)c2cc(F)ccc21` (centres unmarked) [(1′-benzyl-5-fluoro-2,2′,5′-trioxospiro[indole-3,3′-pyrrolidin]-1(2H)-yl)acetic acid] reads greater than 70%.
`COCCN1C(=O)CC2(C1=O)C(=O)N(CC(=O)O)c1ccc(Cl)cc12` (centres unmarked) [[5-chloro-1′-(2-methoxyethyl)-2,2′,5′-trioxospiro[indole-3,3′-pyrrolidin]-1(2H)-yl]acetic acid]: at CRTH2 [3], the inhibition was greater than 70%.
For the compound `O=C(O)CCCN1C(=O)C2(CC(=O)N(Cc3ccccc3)C2=O)c2cc(F)ccc21` (centres unmarked) [4-(1′-benzyl-5-fluoro-2,2′,5′-trioxospiro[indole-3,3′-pyrrolidin]-1(2H)-yl)butanoic acid], on CRTH2 [3], the inhibition was greater than 70%.
`C=CCN1C(=O)CC2(C1=O)C(=O)N(CCCC(=O)O)c1ccc(F)cc12` (centres unmarked) [4-(1′-allyl-5-fluoro-2,2′,5′-trioxospiro[indole-3,3′-pyrrolidin]-1(2H)-yl)butanoic acid]: the inhibition on CRTH2 [3] was greater than 70%.
On the same count and under the same terms, the value for `COc1ccc2c(c1)C1(CC(=O)N(Cc3ccccc3)C1=O)C(=O)N2CC(=O)O` (centres unmarked) [(1′-benzyl-5-methoxy-2,2′,5′-trioxospiro[indole-3,3′-pyrrolidin]-1(2H)-yl)acetic acid] was greater than 70%.
For the compound `CCOCCN1C(=O)CC2(C1=O)C(=O)N(CC(=O)O)c1ccc(Cl)cc12` (centres unmarked) [Compound 28, [5-chloro-1′-(2-ethoxyethyl)-2,2′,5′-trioxospiro[indole-3,3′-pyrrolidin]-1(2H)-yl]acetic acid], on CRTH2 [1], the Ki was 1030 nM. In other words, the single-digit micromolar range.
On the same count and under the same terms, the value for `O=C(O)CN1C(=O)C2(NC(=O)N(Cc3ccccc3F)C2=O)c2cc(Cl)ccc21` (centres unmarked) [Compound 108, [5′-chloro-1-(2-fluorobenzyl)-2,2′,5-trioxospiro[imidazolidine-4,3′-indol]-1′(2′H)-yl]acetic acid] was 4.8 nM; that for `O=C(O)CN1C(=O)C2(CC(=O)N(C/C=C/c3ccccc3)C2=O)c2cc(Cl)ccc21` (centres unmarked) [Compound 25, [5-chloro-2,2′,5′-trioxo-1′-[(2E)-3-phenylprop-2-en-1-yl]spiro[indole-3,3′-pyrrolidin]-1(2H)-yl]acetic acid] was 768 nM.
At CRTH2 [3], `O=C(O)CCCN1C(=O)C2(CC(=O)N(Cc3ccccc3)C2=O)c2cc(Cl)ccc21` (centres unmarked) [4-(1′-benzyl-5-chloro-2,2′,5′-trioxospiro[indole-3,3′-pyrrolidin]-1(2H)-yl)butanoic acid] yielded an inhibition greater than 70%.
